The values that follow come from ChEMBL document CHEMBL4342498, “Design and Discovery of an Orally Efficacious Spiroindolinone-Based Tankyrase Inhibitor for the Treatment of Colon Cancer” (J Med Chem, 2020).

In brackets after ≈: the same amount, converted by molar mass.

A short description of series [1]: Half life in ICR mouse at 50 mg/kg, po. The series is classed as ADME, organism-based. To be noted: in vivo.
Series [2] in a line: Tmax in ICR mouse at 50 mg/kg, ip. The format is ADME, organism-based. To be noted: in vivo.
A short description of series [3]: Stability in human liver microsomes assessed as parent compound remaining at 1 uM measured after 60 mins in presence of NADPH by LC-MS/MS analysis. The format is ADME, Microsome. To be noted: read-out: Stability.
Series [4] can be described thus: AUC (infinity) in ICR mouse at 50 mg/kg, po. The series is classed as ADME, organism-based. Also on record: dose 50 mg/kg, time infinity, route oral. To be noted: in vivo.
The nature of series [5]: Permeability of the compound measured after 4 hrs by PAMPA. The series is classed as ADME. To be noted: read-out: permeability.
For a further series, the system named is COLO 320DM. Put plainly: Antiproliferative activity against human COLO320DM cells assessed as inhibition of cell growth measured after 4 days by CellTiter-Glo assay. The series is classed as functional. To be noted: 96 h. For orientation: Cellular ATP, detected with luciferase, serves as a proxy for viable cell number.
The nature of series [6]: Stability in human liver microsomes assessed as parent compound remaining at 1 uM measured after 30 mins in presence of NADPH by LC-MS/MS analysis. The format is ADME, Microsome. To be noted: read-out: Stability. For orientation: Microsomes from liver hold many membrane-bound enzymes, among them those of drug oxidation.
Series [7] in a line: Stability in mouse liver microsomes assessed as parent compound remaining at 1 uM measured after 30 mins in presence of NADPH by LC-MS/MS analysis. The series is classed as ADME, Microsome. To be noted: read-out: Stability.
In series [8] the target is T1, Poly [ADP-ribose] polymerase tankyrase-1 (Homo sapiens, UniProt O95271).
T1 sequence (O95271 whole entry): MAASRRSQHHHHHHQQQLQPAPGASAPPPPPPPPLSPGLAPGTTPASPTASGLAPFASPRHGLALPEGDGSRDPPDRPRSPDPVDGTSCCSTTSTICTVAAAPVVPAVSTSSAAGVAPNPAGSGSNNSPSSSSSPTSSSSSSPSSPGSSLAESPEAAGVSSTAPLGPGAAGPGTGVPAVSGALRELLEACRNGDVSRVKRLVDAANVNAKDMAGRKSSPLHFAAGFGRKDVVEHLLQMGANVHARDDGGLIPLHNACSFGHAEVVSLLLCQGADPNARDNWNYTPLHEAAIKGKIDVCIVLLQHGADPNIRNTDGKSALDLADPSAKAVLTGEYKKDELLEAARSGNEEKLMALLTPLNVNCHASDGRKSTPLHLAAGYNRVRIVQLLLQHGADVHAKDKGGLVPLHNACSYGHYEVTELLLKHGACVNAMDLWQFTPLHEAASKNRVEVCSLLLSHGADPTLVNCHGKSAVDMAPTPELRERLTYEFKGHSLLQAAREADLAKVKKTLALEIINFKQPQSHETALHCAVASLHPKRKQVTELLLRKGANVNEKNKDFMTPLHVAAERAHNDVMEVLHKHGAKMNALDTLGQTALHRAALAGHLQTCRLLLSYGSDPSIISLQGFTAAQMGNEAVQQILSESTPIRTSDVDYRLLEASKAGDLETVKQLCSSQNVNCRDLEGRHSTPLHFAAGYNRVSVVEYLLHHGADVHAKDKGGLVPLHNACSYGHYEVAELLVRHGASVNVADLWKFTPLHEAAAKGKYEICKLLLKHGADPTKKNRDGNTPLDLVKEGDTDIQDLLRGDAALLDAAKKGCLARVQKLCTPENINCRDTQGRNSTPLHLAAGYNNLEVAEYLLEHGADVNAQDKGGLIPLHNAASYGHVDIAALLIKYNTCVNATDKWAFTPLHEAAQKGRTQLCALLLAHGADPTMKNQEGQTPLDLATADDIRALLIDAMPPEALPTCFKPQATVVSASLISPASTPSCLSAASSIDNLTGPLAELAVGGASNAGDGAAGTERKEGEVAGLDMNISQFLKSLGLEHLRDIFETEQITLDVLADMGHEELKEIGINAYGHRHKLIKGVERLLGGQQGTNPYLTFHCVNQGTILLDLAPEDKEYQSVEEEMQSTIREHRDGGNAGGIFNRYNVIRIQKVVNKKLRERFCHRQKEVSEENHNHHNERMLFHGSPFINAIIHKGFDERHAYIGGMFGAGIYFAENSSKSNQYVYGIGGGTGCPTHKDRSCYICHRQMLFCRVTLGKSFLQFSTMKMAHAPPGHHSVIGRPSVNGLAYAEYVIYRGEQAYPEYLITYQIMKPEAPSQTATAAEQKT
Description: Inhibition of recombinant human N-terminal TEV cleavage site-fused/FLAG-poly his-tagged TNKS SAM-PARP domain (1024 to 1327 residues) expressed in Escherichia coli assessed as reduction in auto-PARylation preincubated for 10 mins followed by biotinylated-NAD+ addition and measured after 45 mins by ELISA

The next series in a line: physchem. To be noted: phosphate buffered saline, pH 7.4.
Series [9] in a line: Stability in rat liver microsomes assessed as parent compound remaining at 1 uM measured after 60 mins in presence of NADPH by LC-MS/MS analysis. The format is ADME, Microsome. To be noted: read-out: Stability.
Series [10] can be described thus: Protein binding in mouse plasma assessed as unbound fraction at 1 uM measured after 24 hrs by LC-MS/MS analysis. The series is classed as ADME, cell-free.
Series [11] in a line: Tmax in ICR mouse at 50 mg/kg, po. The format is ADME, organism-based. To be noted: in vivo.
The nature of series [12]: Net efflux ratio of permeability across basolateral to apical side over apical to basolateral side in MDCK2-MDR1 cells to MDCK2 cells. To be noted: dog, mdck. The format is ADME, cell-based, Canis lupus familiaris.

Take `CN1CCN(c2cc(F)c3c(c2)N(C)C(=O)C32CCN(c3nc4c(c(=O)[nH]3)CCCN4C)CC2)CC1`: the half-life (commonly how long it takes for the measured level to halve) in series [1] is 4 h. Further, the time to peak (Tmax) – broadly, the time from dosing to the highest level – worked out at 0.5 h in series [2] and 0.25 h in series [11]. The remaining at 1 h, 1 µM is 30.5 to 54.5% in series [3] and 65.3% in series [9]. In addition, the area under the curve AUC(0-inf) – broadly, total exposure, with the tail of the curve extrapolated – in series [4] worked out at 77 µM·h. Also, in series [5], the Papp at 4 h came out at 12.8 ×10⁻⁶ cm/s. Also, in the series with COLO 320DM, the GI50 (as a rule, the concentration that inhibits growth by half) worked out at 190 nM. In addition, the remaining at 0.5 h, 1 µM in series [6] came out at 72.7%; in [7] it was 54.9%. In addition, 7.7 nM corresponded to half-maximal inhibition in series [8] (IC50). Besides, the solubility (in general, how much of the substance goes into solution per volume) at 1 h, 200 µM in “physchem” was 94.5 µg/mL (≈ 191 µM). In addition, in [10], the fraction unbound (as a rule, free concentration divided by total concentration) at 24 h, 1 µM turned out to be 0.019. For the same compound, the Ratio in series [12] came to 4.3.

Turning to `C[C@@H]1CN(c2cc(F)c3c(c2)N(C)C(=O)C32CCN(c3nc4c(c(=O)[nH]3)CCCN4C)CC2)C[C@H](C)O1`, the half-life in series [1] is 1.8 h. For the same compound, the time of peak concentration (Tmax) in series [2] and in series [11] was 1 h throughout. For the same compound, the remaining at 1 h, 1 µM in series [3] was 28.7 to 55.9%; in series [9] it was 44%. In addition, the AUC(0-inf) in [4] came out at 594 µM·h. In addition, in series [5], the Papp at 4 h amounted to 12.4 ×10⁻⁶ cm/s. Moreover, the GI50 in the series on COLO 320DM is 230 nM. The remaining at 0.5 h, 1 µM in series [6] was found to be 73%; in [7], 49.7%. For the same compound, in series [8], the half-inhibitory concentration (IC50) (usually the point on the concentration scale where inhibition reaches its midpoint) was determined as 36.1 nM. In the series “physchem”, the solubility at 1 h, 200 µM turned out to be 34.1 µg/mL (≈ 66.8 µM). In series [10], the fraction unbound at 24 h, 1 µM is 0.006. Further, the Ratio in series [12] came out at 1.1.
